Test results as given in patent US9782400B2, “Oncogenic ROS1 and ALK kinase inhibitor” (Macau University of Science and Technology, priority 2015, dated 2017).

How the values were obtained:
ROS1 fusion kinase = assay: Western blot of ROS1 phosphorylation and downstream signaling in HCC78 cells; assay type: cell-based; conditions: HCC78 cells, 1.25, 2.5, 5 μM, 72 h
Protocol: The cells were planted on 6-well plate, allowed to attach for 24 h, and treated with the various concentrations of the compound of Formula (Ic) for 72 h. Cells were washed twice with cold PBS then lysed in RIPA lysis buffer containing protease and phosphatase inhibitors. Protein concentration of the cell lysates was measured using the Bio-Rad protein Assay kit (Bio-Rad, 7 Philadelphia, Pa., USA). After equalizing the protein concentrations of the samples, 5× laemmli buffer was added and the samples were boiled at 100° C. for 5 min. Equal amounts of protein samples (30 μg) were subjected to SDS-PAGE of a 10% gel. The separated proteins were transferred to a nitrocellulose (NC) membrane, which was then exposed to 5% non-fat dried milk in TBS containing 0.1% Tween (0.1% TBST) for 1 h at room temperature, followed by overnight incubation at 4° C. with primary antibodies to GAPDH, phospho-AKT, AKT, phospho-ROS1, ROS1, phospho-ERK, ERK, phospho-STAT3, STAT3. After washing three times by TBST (5 mins/time), the membranes were incubated for 1 h at room temperature with the secondary fluorescent antibodies (1:10000 dilutions) to rabbit or mouse. The signal intensity of the membranes was detected by an LI-COR Odessy scanner (Belfast, Me., USA).

BEAS-2B cells [1] = assay: MTT assay, human bronchial epithelial cells (Example 2A); assay type: cell-based; conditions: 72 h treatment
Protocol: (§1) H2228 (which express EML4-ALK fusion kinases, namely variant 3) and BEAS-2B cells were obtained from the American Type Culture Collection and cultured in environment of 5% CO2 at 37° C. in RPMI-1640 medium supplemented with 10% fetal bovine serum (FBS), 100 units/mL penicillin, and 100 μg/mL streptomycin.
(§2) The cytotoxicity effect of the compound of Formula (Ic) on H2228 NSCLC cells (harboring ALK fusion) and human bronchial epithelial (BEAS-2B) have been analyzed. H2228 cells were cultured in 96-well plates at a density of 3×10^3 cells/well, and were cultured overnight for cell adhesion. Then the cells were treated with DMSO or various concentrations of the compound of Formula (Ic) for 72 h. To each well 10 μL MTT (5 mg/mL) (Sigma) was added and the cells were incubated for another 4 h at 37° C., followed by adding 100 μL acidic isopropanol (10% SDS, and 0.01 mol/L HCl). Finally, the optical density (OD) of each well was measured at 570 nm by the Microplate Reader (Epoch, Winooski, USA). The cell viability was calculated relative to untreated controls, with results based on at least three independent experiments.

H2228 NSCLC cells = assay: MTT assay, cell viability of H2228 cells; assay type: cell-based; conditions: Homo sapiens, NCI-H2228, 72 h treatment
Protocol: as §1, §2

BEAS-2B cells [2] = assay: MTT assay, normal lung epithelial cells (Example 1A); assay type: cell-based; conditions: Homo sapiens, 72 h treatment
Protocol: (§3) To show the highly cytotoxic and selective properties of the present compound of Formula (Ic), HCC78 NSCLC cells and normal lung epithelial cells (BEAS-2B) were treated with the compound of Formula (Ic) and respective effects were observed. HCC78 NSCLC cells are non-small cell lung cancer cells with a ROS1 gene fusion. HCC78 cells were obtained from the American Type Culture Collection (ATCC) and cultured in environment of 5% CO2 at 37° C. in RPMI-1640 medium supplemented with 10% fetal bovine serum (FBS), 100 units/mL penicillin, and 100 μg/mL streptomycin. The compound of Formula (Ic) was dissolved in DMSO. Using a MTT assay, 3000 HCC78 or BEAS-2B cells were seeded on 96-well plates, cultured overnight for cell adhesion, and treated with DMSO or various concentrations of the compound of Formula (Ic) for 72 h. Three independent tests were performed. 10 μL of MTT (5 mg/mL; Sigma) were added to each well, and incubation continued for another 4 h. Then the dark blue crystals were dissolved in 100 μL of the resolved solution (10% SDS and 0.1 mM HCL). The absorbance was measured at 570 nm by a microplate reader (Tecan, Morrisville, N.C., USA).
(§4) The cell viability was calculated relative to untreated controls, with results based on at least three independent experiments. […] The compound of Formula (Ic) exerts a 3.75-fold cytotoxicity towards cancer cells than normal healthy cells.

H2228 cells [3] = assay: Apoptosis assay (Annexin-V FITC/PI flow cytometry) in H2228 cells; assay type: cell-based; conditions: 48 h
Protocol: H2228 cells (1.0×10^5 cells/well) were allowed to attach in a 6-well plate for 24 h. The cells were treated with various concentrations of the compound of Formula (Ic), namely 1.25, 2.5 and 5 μM, for 48 h. Subsequently, cells were trypsinized, washed with PBS twice, then the cells were resuspended in a total volume of 100 μL binding buffer with 2 μL Annexin-V FITC and 5 μL propidine iodide (PI). Finally, the cells were gently mixed and incubated in the dark at room temperature for 15 min, before further addition of 400 μL of 1× Annexin-binding buffer, the number of apoptotic cells was quantified using a Flow Cytometer (BD Biosciences, San Jose, Calif., USA) within 1 h. Data were analyzed by Flow Jo software.

H2228 cells [4] = assay: Colony formation assay in H2228 cells; assay type: cell-based; conditions: 14 days
Protocol: H2228 cells were seeded to six-well plate (1000/well). Then cells were exposed to various doses of the compound of Formula (Ic), namely 1.25, 2.5 and 5 μM. After 14 days, colonies were fixed with 4% paraformaldehyde for 15 min and stained with crystal violet for 10-15 min. Finally, the staining solution was slowly washed off with water and the cells were air dried. Clones with more than 50 cells were counted under a microscope.

HCC78 cells = assay: Apoptosis assay (Annexin-V FITC/PI, fluorescence images and flow cytometry) in HCC78 cells; assay type: cell-based; conditions: 72 h
Protocol: HCC78 cells (1.0×10^5 cells/well) were allowed to attach to a 6-well plate for 24 h, and the cells were treated with the various concentrations of the compound of Formula (Ic) for additional 72 h. At the end of incubation, the cells were harvested by trypsinization and washed twice with ice-cold PBS. After centrifugation and removal of the supernatants, cell pellets were resuspended in 100 μL 1× Annexin-binding buffer, 2 μL Annexin-V FITC and 2 μL PI (100 μg/ml) were added and incubated in the dark at room temperature for 15 min before further addition of 400 μL of 1× Annexin-binding buffer. The stained cells were analyzed quantitatively using a flow cytometer (BD Biosciences, San Jose, Calif., USA). […] Such cell morphology indicates apoptosis.

HCC78 NSCLC cells = assay: MTT assay, cell viability of HCC78 cells; assay type: cell-based
Protocol: as §3, §4

ALK fusion kinase = assay: Western blot of ALK phosphorylation and downstream signaling in H2228 cells; assay type: cell-based; conditions: H2228 cells, 1.25, 2.5, 5 μM
Protocol: Equal amounts of the protein samples (20-40 μg per lane) were separated on a 10% SDS-PAGE gel, then proteins were transferred onto Nitrocellulose (NC) membrane at 300 mA for 2.5 hours at 4° C., the membranes was probed with primary antibodies overnight at 4° C. which was then exposed to 5% non-fat dry milk in TBST for 1 h at room temperature with constant agitation and, then, rabbit or mouse fluorescent antibodies (1:1000) were added to the membrane at room temperature for 1 h. Visualization was performed using a LI-COR Odessy scanner (Belfast, Me., USA). All primary antibodies were diluted 1:1000, while their recommended secondary antibodies were diluted 1:10000.

ROS1-positive NSCLC = conditions: NSCLC patients harboring ROS1 rearrangements; cited from earlier work

Row | SMILES | ROS1 phosphorylation and downstream signaling involving Erk1/2, STAT3 and AKT (ROS1 fusion kinase) | IC50 (BEAS-2B cells [1]) | IC50 (H2228 NSCLC cells) | IC50 (BEAS-2B cells [2]) | induction of apoptosis (flow cytometry) (H2228 cells [3]; H2228 cells, 1.25, 2.5, 5 μM) | level of cell apoptosis compared with control group (H2228 cells [3]; H2228 cells, concentration of at least 5 μM) | formation of H2228 cell colonies (H2228 cells [4]; 5 μM) | formation of H2228 cell colonies (H2228 cells [4]; 1.25, 2.5, 5 μM) | cell morphology indicating apoptosis (fluorescence images) (HCC78 cells; HCC78 cells, 2.5 μM) | induction of apoptosis (flow cytometry) (HCC78 cells; HCC78 cells, 1.25, 2.5, 5 μM) | fold cytotoxicity towards cancer cells than normal healthy cells (HCC78 NSCLC cells; HCC78 versus BEAS-2B, 72 h) | IC50 (HCC78 NSCLC cells; Homo sapiens, HCC78 cells, MTT, 72 h treatment) | ALK phosphorylation and downstream PI3K/AKT, MEK/ERK and JAK/STAT3 signaling pathways (ALK fusion kinase) | median progression-free survival (ROS1-positive NSCLC) | objective response rate (ROS1-positive NSCLC)
1 | COc1ccc(CNC(=O)Cn2nc(-c3ccccc3)c3cnc4ccccc4c32)cc1 [compound of Formula (Ic)] | dose-dependent decrease | 6.51 ± 1.08 µM | 2.71 ± 0.92 µM | 6.08 µM | induction of apoptosis of H2228 cells in a concentration-dependent manner | significant levels of cell apoptosis | no visible colonies | inhibited the formation of H2228 cell colonies in a dose-dependent manner | detach from the surface and are small | induction of apoptosis on HCC78 cells in a concentration dependent manner | 3.75 fold | 1.62 µM | significant suppression |  | 
2 | C[C@@H](Oc1cc(-c2cnn(C3CCNCC3)c2)cnc1N)c1c(Cl)ccc(F)c1Cl [crizotinib] |  |  |  |  |  |  |  |  |  |  |  |  |  | 19.2 months | 72%
